Reference: US11161839B2, “2-quinolone derived inhibitors of BCL6” (Cancer Research Technology Limited, priority 2017, dated 2021)

Assays:
BCL6 = BCL6 (Homo sapiens (Human), UniProt P41182); assay: assays described in the Examples section (not specified which); details: tested compounds outside desired/preferred activity
Method: DC50 values (compound concentration at which 50% of endogenous BCL6 protein is degraded) were determined in SUDHL-4 cells (American Type Culture Collection) in an immunofluorescence-based assay using an InCell2200 high content imaging system (GE Healthcare). Briefly, 40 μL of lymphoma suspension cells cultured in RPMI 1640-10% FBS (Sigma-Aldrich or PAN Biotech UK Ltd) were platted on fibronectin (Sigma catalogue F1141)-coated 384 well Cell Carrier Ultra plate (Perkin Elmer catalogue 6057300) at 1.2 104 cells/well. After 20 hours cell culture at 37° C./C02 incubator, compounds were dispensed in the cell culture plate using ECHO550 acoustic dispenser (Labcyte, Inc.), as 8 point-concentration response (ranging from 5 nM to 10 μM) in 0.67% final DMSO concentration. Cells were incubated with compound for 2 hours at 37° C./C02 incubator followed by fixation in 4.5% formaldehyde (37% formaldehyde solution, Sigma catalogue F8775) at room temperature for 15 min. After fixing, cells were washed in 1×TBS (Tris Buffer Saline) using a Power Washer 384 (Tecan Group Ltd). Blocking and cell permeabilisation were performed by incubating the fixed cells for 1 hour at room temperature in 1×TBS, 5% BSA, 1% Triton X100, followed by three washes on PW384 plate washer. Primary and secondary antibodies were prepared in 1×TBS, 1% BSA, 0.2% Triton X100. BCL6 expression was detected by incubating the cells for 1 h30 with BCL6 rabbit polyclonal antibody (Sigma Catalogue HPA004899) at 1:250, 0.8 μg/ml, followed by 1 hour in chicken anti-Rabbit Alexa 488 conjugated antibody (Life Technology) at 1:500. After incubation in each antibody, cells were washes four times in 1×TBS-0.05% tween on PW384 plate washer. Cells were finally incubated for 60 min with nuclear staining RedDot2 dye (Biotium) at 0.5× the stock concentration in 1×TBS. BCL6 expression in the absence or presence of compound was detected on InCell2200 with 20× objective and quantified on InCell Analyser 3.7.2 workstation (GE Healthcare). The % response at each concentration was calculated by normalising BCL6 expression in the presence of compound to the appropriate high (DMSO) and low (DMSO with 7 μM CCT369260) controls.
(§1) The volume of medium containing 2000 cells in the control well was calculated and this volume of cells was transferred from every well of the assay plates to the corresponding well of the fresh plates containing compound. After 14 days, CellTiter Glo reagent (Promega) was added to the medium in each well of the assay plate at a ratio of 1:2, mixed on a plate shaker, then incubated at room temperature for 10 minutes. Luminescence was measured using an Envision plate reader (Perkin Elmer) and the relative luminescence at each compound concentration, compared to DMSO alone, was calculated. IC50 were determined using a 4-parameter curve fit in Dotmatics (Bishops Stortford, UK).

[1] = molecular target: human BCL6 BTB domain (Trx-6xHis-BCL6) (Homo sapiens (Human), UniProt P41182); assay: HTRF in vitro assay (BCL6 BTB domain / BCOR-AF633 peptide); type: binding; details: for IC50: read-out: HTRF pIC50 (converted)
[2] = molecular target: BCL6-NCOR2(SMRT) corepressor protein-protein interaction (Homo sapiens (Human), UniProt P41182); assay: NanoBRET cell assay in transfected HEK293T cells; type: cell-based; details: further generated data (Table 2b); HEK293T cells, 6 hr; read-out: NanoBRET cell pIC50 (converted)
SU-DHL-4 cells = assay: 14-day cell proliferation assay (CellTiter Glo); type: cell-based; details: Homo sapiens, SU-DHL4 cells, 14 days
Method: as §1

[3] = further generated data (Table 1b), 1 nM Trx-6xHis-BCL6, 0.5 nM anti-6xHis-Terbium cryptate
[4] = initially generated data (Table 1a), 10 nM Trx-6xHis-BCL6, 1 nM anti-6xHis-Terbium cryptate

Row | activity in the assays described in the Examples section (BCL6) | HTRF pIC50 [1, 3] | IC50 [2] | GI50 (SU-DHL-4 cells) | IC50 [1, 3] | HTRF pIC50 [1, 4] | Structure (SMILES)
1 | not to exhibit the preferred activity |  |  |  |  |  | CCNc1cc(=O)n(C)c2ccc(Nc3ccnc(Cl)c3C#N)nc12 [2-chloro-4-((8-(ethylamino)-5-methyl-6-oxo-5,6-dihydro-1,5-naphthyridin-2-yl)amino)nicotinonitrile]
2 |  | 7.39 | 0.49 µM | 0.29 µM |  |  | CC(Nc1cc(=O)n(C)c2ccc(Nc3ccnc(Cl)c3C#N)cc12)c1ncc(N2C[C@@H](C)O[C@@H](C)C2)cn1 (stereo partly drawn) [Example 10b, 2-chloro-4-((4-((1-(5-((2S,6R)-2,6-dimethylmorpholino)pyrimidin-2-yl)ethyl)amino)-1-methyl-2-oxo-1,2-dihydroquinolin-6-yl)amino)nicotinonitrile]
3 | did not exhibit the desired activity |  |  |  |  |  | CC(Nc1cc(=O)[nH]c2ccc(Nc3ccnc(Cl)c3C#N)cc12)c1cnn(C)c1 (centres unmarked) [2-chloro-4-((4-((1-(1-methyl-1H-pyrazol-4-yl)ethyl)amino)-2-oxo-1,2-dihydroquinolin-6-yl)amino)nicotinonitrile]
4 |  | 6.54 | 0.891 µM | 0.76 µM |  |  | Cc1cc(C)n(-c2ncc(Cl)c(Nc3ccc4c(c3)c(N[C@H](C)C3CC3)cc(=O)n4C)n2)n1 [Example 14c, (R)-6-((5-chloro-2-(3,5-dimethyl-1H-pyrazol-1-yl)pyrimidin-4-yl)amino)-4-((1-cyclopropylethyl)amino)-1-methylquinolin-2(1H)-one]
5 |  | 7.45 | 0.49 µM | 0.46 µM |  |  | CC(Nc1cc(=O)n(C)c2ccc(Nc3ccnc(Cl)c3C#N)cc12)c1ncc(-c2cnn(C)c2)cn1 (centres unmarked) [Example 10c, 2-chloro-4-((1-methyl-4-((1-(5-(1-methyl-1H-pyrazol-4-yl)pyrimidin-2-yl)ethyl)amino)-2-oxo-1,2-dihydroquinolin-6-yl)amino)nicotinonitrile]
6 |  | 6.81 | 1.38 µM | 2.13 µM |  |  | Cn1c(=O)cc(NC(C)(C)c2ncccn2)c2cc(Nc3ccnc(Cl)c3Cl)ccc21 [Example 6b, 6-((2,3-dichloropyridin-4-yl)amino)-1-methyl-4-((2-(pyrimidin-2-yl)propan-2-yl)amino)quinolin-2(1H)-one]
7 |  | 7.33 | 0.589 µM | 1.48 µM |  |  | CC(Nc1cc(=O)n(C)c2ccc(Nc3ccnc(Cl)c3C#N)cc12)c1ncc(N2CCOC(C(F)(F)F)C2)cn1 (centres unmarked) [Example 10d, 2-chloro-4-((1-methyl-2-oxo-4-((1-(5-(2-(trifluoromethyl)morpholino)pyrimidin-2-yl)ethyl)amino)-1,2-dihydroquinolin-6-yl)amino)nicotinonitrile]
8 |  | 7.50 | 0.24 µM | 0.45 µM |  |  | Cn1c(=O)cc(NC(C)(C)c2ncccn2)c2cc(Nc3cc(C(=O)N4CC(C(F)(F)F)C4)nc(Cl)c3C#N)ccc21 [Example 8d, 2-chloro-4-((1-methyl-2-oxo-4-((2-(pyrimidin-2-yl)propan-2-yl)amino)-1,2-dihydroquinolin-6-yl)amino)-6-(3-(trifluoromethyl)azetidine-1-carbonyl)nicotinonitrile]
9 |  | 6.73 |  | 0.11 µM |  |  | C[C@@H]1CN(c2ncc(Cl)c(Nc3ccc4c(c3)c(NC(C)(C)c3ncccn3)nc(=O)n4C)n2)C[C@H](C)C1(F)F [Example 25a, 6-((5-chloro-2-((3R,5S)-4,4-difluoro-3,5-dimethylpiperidin-1-yl)pyrimidin-4-yl)amino)-1-methyl-4-((2-(pyrimidin-2-yl)propan-2-yl)amino)quinazolin-2(1H)-one]
10 |  |  |  | 1.72 µM |  |  | CC(Nc1cc(=O)n(C)c2ccc(Nc3ccnc(Cl)c3C#N)cc12)c1ncc(C2CC2)cn1 (centres unmarked) [Example 10e, 2-chloro-4-((4-((1-(5-cyclopropylpyrimidin-2-yl)ethyl)amino)-1-methyl-2-oxo-1,2-dihydroquinolin-6-yl)amino)nicotinonitrile]
11 |  | 7.58 | 0.912 µM | 1.34 µM |  |  | CC(Nc1cc(=O)n(C)c2ccc(Nc3ccnc(Cl)c3C#N)cc12)c1ncc(C2CCOCC2)cn1 (centres unmarked) [Example 10w, 2-chloro-4-[[1-methyl-2-oxo-4-[1-(5-tetrahydropyran-4-ylpyrimidin-2-yl)ethylamino]-6-quinolyl]amino]pyridine-3-carbonitrile]
12 |  | 6.58 | 1.55 µM |  |  |  | CC(Nc1cc(=O)n(C)c2ccc(Nc3cc(-n4cc(CCO)cn4)ncc3Cl)cc12)c1ncccn1 (centres unmarked) [Example 15i, 6-((5-chloro-2-(4-(2-hydroxyethyl)-1H-pyrazol-1-yl)pyridin-4-yl)amino)-1-methyl-4-((1-(pyrimidin-2-yl)ethyl)amino)quinoline-2(1H)-one]
13 |  | 6.99 | 0.676 µM | 0.44 µM |  |  | C[C@@H]1CN(c2ncc(Cl)c(Nc3ccc4c(c3)c(NC(C)(C)c3ncccn3)nc(=O)n4C)n2)C[C@H](C)O1 [Example 26f, 6-[[5-chloro-2-[(2R,6S)-2,6-dimethylmorpholin-4-yl]pyrimidin-4-yl]amino-1-methyl-4-[(1-methyl-1-pyrimidin-2-yl)ethyl)amino]quinazolin-2-one:formic acid (1:1)]
14 |  |  | 3.8 µM |  | 0.501 µM |  | CC(Nc1cc(=O)n(C)c2ccc(Nc3nc(N4CCC(F)(F)C(CO)C4)ncc3Cl)cc12)c1ncccn1 (single isomer, unassigned) [Example 26d]
15 |  |  |  | 0.34 µM | 0.251 µM |  | CC(Nc1nc(=O)n(C)c2ccc(Nc3nc(N4C[C@@H](C)C(F)(F)[C@@H](C)C4)ncc3Cl)cc12)c1ncccn1 (mixture of isomers) [Example 12h, rac-6-((5-chloro-2-((3R,5S)-4,4-difluoro-3,5-dimethylpiperidin-1-yl)pyrimidin-4-yl)amino)-1-methyl-4-((1-(pyrimidin-2-yl)ethyl)amino)quinazolin-2(1H)-one]
16 |  | 7.31 | 0.933 µM |  |  | 6.76 | CNC(=O)c1cc(Nc2ccc3c(c2)c(NC(C)c2ncccn2)cc(=O)n3C)c(C#N)c(Cl)n1 (centres unmarked) [Example 1v, 6-chloro-5-cyano-N-methyl-4-[[1-methyl-2-oxo-4-(1-pyrimidin-2-ylethylamino)-6-quinolyl]amino]pyridine-2-carboxamide]
17 |  | 7.55 | 2.75 µM |  |  |  | CN(C)C(=O)c1cc(Nc2ccc3c(c2)c(NC(C)(C)c2ncccn2)cc(=O)n3C)c(C#N)c(Cl)n1 [Example 19a, 6-chloro-5-cyano-N,N-dimethyl-4-((1-methyl-2-oxo-4-((2-(pyrimidin-2-yl)propan-2-yl)amino)-1,2-dihydroquinolin-6-yl)amino)picolinamide]
18 |  | 6.56 | 2.82 µM |  |  | 6.36 | CC(Nc1cc(=O)n(C)c2ccc(Nc3ccnc(Cl)c3Cl)cc12)c1ncccn1 (centres unmarked) [Example 6a, 6-[(2,3-Dichloro-4-pyridyl)amino]-1-methyl-4-(1-pyrimidin-2-ylethylamino)quinolin-2-one]
19 |  | 6.37 | 5.01 µM |  |  |  | CN(C)C(=O)C1CCN(c2ncc(Cl)c(Nc3ccc4c(c3)c(NC3(C#N)CC3)cc(=O)n4C)n2)CC1 [Example 16b, 1-(5-chloro-4-((4-((1-cyanocyclopropyl)amino)-1-methyl-2-oxo-1,2-dihydroquinolin-6-yl)amino)pyrimidin-2-y1)-N,N-dimethylpiperidine-4-carboxamide]
20 |  | 6.51 | 8.71 µM |  |  |  | COCC(C)(C)Nc1cc(=O)n(C)c2ccc(Nc3ccnc(Cl)c3C#N)cc12 [Example 19d, 2-chloro-4-((4-((1-methoxy-2-methylpropan-2-yl)amino)-1-methyl-2-oxo-1,2-dihydroquinolin-6-yl)amino)nicotinonitrile]
